Like-named read-outs stand apart in the source and are kept apart here. Non-standard residues stand in square brackets, D forms with d. Residues, ends and D or L forms follow the SMILES beside them. *: point of attachment. Lauroyl = CCCCCCCCCCCC(=O)*; 12Ado = NCCCCCCCCCCCC(=O)O; Octanoyl = CCCCCCCC(=O)*; Aoc = NCCCCCCCC(=O)O
Legend:
[1] = XTT cell viability assay, non-cancerous cardiac fibroblasts (CF); format: cell-based, rat
From the text: Primary non-cancerous rat cardiac fibroblasts (CF);
(§1) As a routine cancer cell killing assay for assessment of antitumor activity, 2,3-bis(2-methoxy-4-nitro-5-sulfophenyl)-2H-tetrazolium-5-carboxanilide inner salt (XTT) reduction assay was used, utilizing a commercial kit such as, for example, Cell Proliferation XTT Kit, Cat. No. 20-300-1000, Biological Industries Ltd., Kibbutz Beit Haemek, Israel. XTT is a tetrazolium salt which is cleaved to formazan colored compounds by the mitochondrial dehydrogenase enzymes indicating proper mitochondrial activity in intact cells.
(§2) Thereafter, a series of increasing concentrations of the polymers were added. After another 24 hours of incubation, XTT reaction solution was added (50 μl of XTT per 100 μl of cell culture medium). The optical density of the cells was measured at 450 nm by ELISA plate reader after 2-4 hours XTT incubation. Cell viability was determined relative to a control having no polymer added thereto.
“Rat primary cardiac fibroblast CF” represents the lethal concentration in μM as measured against CF cell line, measured as described hereinabove in the cell proliferation XTT assay (column 8 in Table 3);

MCF-7 cell line = format: cell-based; details: 24 hours incubation, XTT; read-out: Cancer LC50 Human breast cancer MCF-7
Procedure: Human breast adenocarcinoma cells (MCF-7);
Thereafter, a series of increasing concentrations of the polymers were added. […] The optical density of the cells was measured at 450 nm by ELISA plate reader after 2-4 hours XTT incubation. Cell viability was determined relative to a control having no polymer added thereto.

N-417 cell line = assay: XTT cell viability assay, N-417 cells; format: cell-based; details: 24 hours incubation, XTT; read-out: Cancer LC50 Human small-cell lung carcinoma N-417
From the text: Variant small cell lung cancer cells (N-417, SCLC);
as §1, §2
“Human breast cancer MCF-7” represents the lethal concentration in μM as measured against MCF-7 cell line, measured as described hereinabove in the cell proliferation XTT assay (column 6 in Table 3); “Human small-cell lung carcinoma N-417” represents the lethal concentration in μM as measured against N-417 cell line, measured as described hereinabove in the cell proliferation XTT assay (column 7 in Table 3);

TRAMP-C2 cell line = format: cell-based; details: 24 hours incubation, XTT; read-out: Cancer LC50 Mouse prostate cancer TRAMP-C2
From the text: Transgenic adenocarcinoma mouse prostate cells (TRAMP-C2);
as §1, §2
“Mouse prostate cancer TRAMP-C2” represents the lethal concentration in μM as measured against TRAMP-C2 cell line, measured as described hereinabove in the cell proliferation XTT assay (column 5 in Table 3);

[2] = primary cardiac fibroblasts (CF), primary non-cancerous rat cardiac fibroblasts, XTT assay, read-out: CF lethal concentration

Row | SMILES | CC50 at 24 h [1, 2] | also measured
1 | NCCCCCCCCCCCC(=O)N[C@@H](CCCCN)C(=O)NCCCCCCCCCCCC(=O)N[C@@H](CCCCN)C(N)=O [(NC12K)2NH2] | > 16 µM | 
2 | NCCCCCCCCCCCC(=O)N[C@@H](CCCCN)C(=O)NCCCCCCCCCCCC(=O)N[C@@H](CCCCN)C(=O)O [(NC12K)2] | > 16 µM | 
3 | NCCCCCCCCCCCC(=O)N[C@@H](CCCCN)C(=O)NCCCCCCCCCCCC(=O)N[C@@H](CCCCN)C(=O)NCCCCCCCCCCCC(=O)N[C@@H](CCCCN)C(N)=O [(NC12K)3NH2] | > 16 µM | 
4 | NCCCCCCCCCCCC(=O)N[C@@H](CCCCN)C(=O)NCCCCCCCCCCCC(=O)N[C@@H](CCCCN)C(=O)NCCCCCCCCCCCC(=O)N[C@@H](CCCCN)C(=O)O [(NC12K)3] | > 16 µM | 
5 | NCCCCCCCCCCCC(=O)N[C@@H](CCCCN)C(=O)NCCCCCCCCCCCC(=O)N[C@@H](CCCCN)C(=O)NCCCCCCCCCCCC(=O)N[C@@H](CCCCN)C(=O)NCCCCCCCCCCCC(=O)N[C@@H](CCCCN)C(=O)O [(NC12K)4] | > 16 µM | 
6 | NCCCCCCCCCCCC(=O)N[C@@H](CCCCN)C(=O)NCCCCCCCCCCCC(=O)N[C@@H](CCCCN)C(=O)NCCCCCCCCCCCC(=O)N[C@@H](CCCCN)C(=O)NCCCCCCCCCCCC(=O)N[C@@H](CCCCN)C(=O)NCCCCCCCCCCCC(=O)N[C@@H](CCCCN)C(N)=O [(NC12K)5NH2] | > 16 µM | 
7 | NCCCCCCCCCCCC(=O)N[C@@H](CCCCN)C(=O)NCCCCCCCCCCCC(=O)N[C@@H](CCCCN)C(=O)NCCCCCCCCCCCC(=O)N[C@@H](CCCCN)C(=O)NCCCCCCCCCCCC(=O)N[C@@H](CCCCN)C(=O)NCCCCCCCCCCCC(=O)N[C@@H](CCCCN)C(=O)NCCCCCCCCCCCC(=O)N[C@@H](CCCCN)C(N)=O [(NC12K)6NH2] | > 16 µM | 
8 | NCCCCCCCCCCCC(=O)N[C@@H](CCCCN)C(=O)NCCCCCCCCCCCC(=O)N[C@@H](CCCCN)C(=O)NCCCCCCCCCCCC(=O)N[C@@H](CCCCN)C(=O)NCCCCCCCCCCCC(=O)N[C@@H](CCCCN)C(=O)NCCCCCCCCCCCC(=O)N[C@@H](CCCCN)C(=O)NCCCCCCCCCCCC(=O)N[C@@H](CCCCN)C(=O)NCCCCCCCCCCCC(=O)N[C@@H](CCCCN)C(N)=O [(NC12K)7NH2] | > 16 µM | 
9 | NCCCCCCCCCCCC(=O)N[C@@H](CCCCN)C(=O)NCCCCCCCCCCCC(=O)N[C@@H](CCCCN)C(=O)NCCCCCCCCCCCC(=O)N[C@@H](CCCCN)C(=O)NCCCCCCCCCCCC(=O)N[C@@H](CCCCN)C(=O)NCCCCCCCCCCCC(=O)N[C@@H](CCCCN)C(=O)NCCCCCCCCCCCC(=O)N[C@@H](CCCCN)C(=O)NCCCCCCCCCCCC(=O)N[C@@H](CCCCN)C(=O)NCCCCCCCCCCCC(=O)N[C@@H](CCCCN)C(N)=O [(NC12K)8NH2] | > 16 µM | 
10 | CCCCCCCC(=O)N[C@@H](CCCCN)C(=O)NCCCCCCCCCCCC(=O)N[C@@H](CCCCN)C(=O)N[C@@H](CCCCN)C(=O)NCCCCCCCCCCCC(=O)N[C@@H](CCCCN)C(N)=O [C8(KNC12K)2NH2] (Octanoyl-K[12Ado]KK[12Ado]K-NH2) |  | CC50 (MCF-7 cell line): > 16 µM; CC50 (N-417 cell line): > 16 µM; CC50 (TRAMP-C2 cell line): > 8 µM; CC50 at 24 h ([1]; rat, primary non-cancerous cardiac fibroblasts (CF), 24 hours incubation, XTT, non-cancerous cells, read-out: Cancer LC50 Rat primary cardiac fibroblast CF): > 16 µM
11 | CCCCCCCCCCCC(=O)N[C@@H](CCCCN)C(=O)NCCCCCCCC(=O)N[C@@H](CCCCN)C(=O)N[C@@H](CCCCN)C(=O)NCCCCCCCC(=O)N[C@@H](CCCCN)C(N)=O [C12(KNC8K)2NH2] (Lauroyl-K[Aoc]KK[Aoc]K-NH2) | < 16 µM | 
12 | CCCCCCCCCCCC(=O)N[C@@H](CCCCN)C(=O)NCCCCCCCC(=O)N[C@@H](CCCCN)C(=O)N[C@@H](CCCCN)C(=O)NCCCCCCCC(=O)N[C@@H](CCCCN)C(=O)N[C@@H](CCCCN)C(=O)NCCCCCCCC(=O)N[C@@H](CCCCN)C(N)=O [C12(KNC8K)3NH2] (Lauroyl-K[Aoc]KK[Aoc]KK[Aoc]K-NH2) | < 16 µM | 
13 | CCCCCCCCCCCC(=O)N[C@@H](CCCCN)C(=O)NCCCCCCCC(=O)N[C@@H](CCCCN)C(=O)N[C@@H](CCCCN)C(=O)NCCCCCCCC(=O)N[C@@H](CCCCN)C(=O)N[C@@H](CCCCN)C(=O)NCCCCCCCC(=O)N[C@@H](CCCCN)C(=O)N[C@@H](CCCCN)C(=O)NCCCCCCCC(=O)N[C@@H](CCCCN)C(N)=O [C12(KNC8K)4NH2] (Lauroyl-K[Aoc]KK[Aoc]KK[Aoc]KK[Aoc]K-NH2) | < 16 µM | 
14 | CCCCCCCCCCCC(=O)N[C@@H](CCCCN)C(=O)NCCCCCCCC(=O)N[C@@H](CCCCN)C(N)=O [C12(KNC8K)NH2] | < 16 µM | 
15 | CCCCCCCCCCCC(=O)N[C@@H](CCCCN)C(=O)NCCCCCCCCCCCC(=O)N[C@@H](CCCCN)C(=O)NCCCCCCCCCCCC(=O)N[C@@H](CCCCN)C(N)=O [C12K(NC12K)2NH2] | > 16 µM | 

From patent US20100173832A1, “ANTICANCEROUS POLYMERIC AGENTS” (TECHNION RESEARCH & DEVELOPMENT FOUNDATION LTD., priority 2007, published 2010)
